Reference: ChEMBL document CHEMBL1130598, “Pyrroles and other heterocycles as inhibitors of p38 kinase” (Bioorg Med Chem Lett, 1998)

Columns and labels:
[1] = target: Mitogen-activated protein kinase 14 (Rattus norvegicus, UniProt P70618); assay: Inhibitory potency evaluated against rat p38 kinase
[2] = C max was determined at 10 mg/kg po dose in rats; assay type: ADME, organism-based; parameters: dose 10 mg/kg, route oral; details: rat, in vivo
[3] = T max was determined at 10 mg/kg po dose in rats; assay type: ADME, organism-based; parameters: dose 10 mg/kg, route oral; details: rat, in vivo
[4] = target: T1, RAF proto-oncogene serine/threonine-protein kinase (Homo sapiens, UniProt P04049); assay: Inhibition of RAF kinase
[5] = Pharmacokinetic parameter Vdss was determined at 2 mg/kg i.v. dose in rats; assay type: ADME, organism-based; parameters: dose 2 mg/kg, route intravenous; details: rat, in vivo, iv, read-out: Vdss
[6] = Pharmacokinetic parameter half-life was determined at 10 mg/kg po dose in rats; assay type: ADME, organism-based; parameters: dose 10 mg/kg, route oral; details: rat, in vivo
[7] = target: T2, Mitogen-activated protein kinase 9 (Homo sapiens, UniProt P45984); assay: Inhibition of c-Jun N-terminal kinase 2-alpha 2
[8] = target: T3, Mitogen-activated protein kinase 12 (Homo sapiens) (UniProt P53778); details: 50 uM
T3 sequence (whole entry): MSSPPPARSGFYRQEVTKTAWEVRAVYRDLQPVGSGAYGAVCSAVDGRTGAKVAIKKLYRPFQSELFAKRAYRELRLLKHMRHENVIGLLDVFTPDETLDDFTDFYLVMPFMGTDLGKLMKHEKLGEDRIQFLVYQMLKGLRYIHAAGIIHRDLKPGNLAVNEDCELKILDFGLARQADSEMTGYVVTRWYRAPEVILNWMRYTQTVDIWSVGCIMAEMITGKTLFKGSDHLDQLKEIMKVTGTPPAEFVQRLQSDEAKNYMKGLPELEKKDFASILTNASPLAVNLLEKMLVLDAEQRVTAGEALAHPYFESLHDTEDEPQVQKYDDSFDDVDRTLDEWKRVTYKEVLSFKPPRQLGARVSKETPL
Description: Inhibition of Mitogen-activated protein kinase p38 gamma at 50 uM

[9] = Bioavailability was determined at 3 mg/kg po dose in rats; assay type: ADME, organism-based; details: rat, in vivo
Rattus norvegicus [10] = assay: Pharmacokinetic parameter plasma clearance was determined at 2 mg/kg i.v. dose in rats; assay type: ADME, organism-based; parameters: dose 2 mg/kg, route intravenous; details: in vivo, iv
[11] = Pharmacokinetic parameter area under curve was determined at 10 mg/kg po dose in rats; assay type: ADME, organism-based; parameters: dose 10 mg/kg, route oral; details: rat, in vivo
Rattus norvegicus [12] = assay: Inhibition of secondary paw swelling in rat adjuvant arthritis model at 20 mg/kg/ b.i.d.; assay type: functional; details: intraduodenal
[13] = Pharmacokinetic parameter area under curve was determined at 3 mg/kg po dose in rats; assay type: ADME, organism-based; parameters: dose 3 mg/kg, route oral; details: rat, in vivo
[14] = Pharmacokinetic parameter half-life was determined at 3 mg/kg po dose in rats; assay type: ADME, organism-based; parameters: dose 3 mg/kg, route oral; details: rat, in vivo
Rattus norvegicus [15] = species on record: Rattus norvegicus; assay: Inhibition of secondary paw swelling in rat adjuvant arthritis model; assay type: functional; details: for ED50: Rattus norvegicus, read-out: ID50 (the source's name)
[16] = target: T4, Mitogen-activated protein kinase 8 (Homo sapiens, UniProt P45983); assay: Inhibition of c-Jun N-terminal kinase 1-alpha 1
[17] = C max was determined at 3 mg/kg po dose in rats; assay type: ADME, organism-based; parameters: dose 3 mg/kg, route oral; details: rat, in vivo
[18] = T max was determined at 3 mg/kg po dose in rats; assay type: ADME, organism-based; parameters: dose 3 mg/kg, route oral; details: rat, in vivo
[19] = target: T2, Mitogen-activated protein kinase 9; assay: Inhibition of c-Jun N-terminal kinase 2-beta 1
[20] = Pharmacokinetic parameter half-life was determined at 2 mg/kg i.v. dose in rats; assay type: ADME, organism-based; parameters: dose 2 mg/kg, route intravenous; details: rat, in vivo, iv
[21] = target: Mitogen-activated protein kinase 14 (Homo sapiens, UniProt Q16539); assay: Inhibition of Mitogen-activated protein kinase p38 alpha
[22] = target: Mitogen-activated protein kinase 11 (Homo sapiens, UniProt Q15759); assay: Inhibition of Mitogen-activated protein kinase p38 beta
Rattus norvegicus [23] = assay: Pharmacokinetic parameter plasma clearance was determined at 5 mg/kg i.v. dose in rats; assay type: ADME, organism-based; parameters: dose 5 mg/kg, route intravenous; details: in vivo, iv
[24] = Pharmacokinetic parameter half-life was determined at 5 mg/kg i.v. dose in rats; assay type: ADME, organism-based; parameters: dose 5 mg/kg, route intravenous; details: rat, in vivo, iv
[25] = Pharmacokinetic parameter area under curve was determined at 5 mg/kg i.v. dose in rats; assay type: ADME, organism-based; parameters: dose 5 mg/kg, route intravenous; details: rat, in vivo, iv
[26] = Pharmacokinetic parameter area under curve was determined at 2 mg/kg i.v. dose in rats; assay type: ADME, organism-based; parameters: dose 2 mg/kg, route intravenous; details: rat, in vivo, iv
[27] = Pharmacokinetic parameter Vdss was determined at 5 mg/kg i.v. dose in rats; assay type: ADME, organism-based; parameters: dose 5 mg/kg, route intravenous; details: rat, in vivo, iv, read-out: Vdss
[28] = target: T4, Mitogen-activated protein kinase 8; assay: Inhibition of c-Jun N-terminal kinase 1-alpha 1 at 20 uM
[29] = target: T3, Mitogen-activated protein kinase 12 (Homo sapiens); assay: Inhibition of Mitogen-activated protein kinase p38 gamma at 25 uM
[30] = target: T1, RAF proto-oncogene serine/threonine-protein kinase; assay: Inhibition of RAF kinase at 1 uM
Rattus norvegicus [31] = assay: Inhibition of secondary paw swelling in rat adjuvant arthritis model at 80 mg/kg b.i.d.; assay type: functional; details: intraduodenal
[32] = target: T4, Mitogen-activated protein kinase 8; assay: Inhibition of c-Jun N-terminal kinase 1-alpha 1 at 5 uM
[33] = target: MAP kinase p38 (Homo sapiens) (UniProt O15264+Q15759+Q16539+P53778); assay: Inhibition of p38 MAP kinase; assay type: protein assay
Rattus norvegicus [34] = species on record: Rattus norvegicus; assay: Inhibition of secondary paw swelling in rat adjuvant arthritis model […]; assay type: functional

T2 sequence (P45984 whole entry): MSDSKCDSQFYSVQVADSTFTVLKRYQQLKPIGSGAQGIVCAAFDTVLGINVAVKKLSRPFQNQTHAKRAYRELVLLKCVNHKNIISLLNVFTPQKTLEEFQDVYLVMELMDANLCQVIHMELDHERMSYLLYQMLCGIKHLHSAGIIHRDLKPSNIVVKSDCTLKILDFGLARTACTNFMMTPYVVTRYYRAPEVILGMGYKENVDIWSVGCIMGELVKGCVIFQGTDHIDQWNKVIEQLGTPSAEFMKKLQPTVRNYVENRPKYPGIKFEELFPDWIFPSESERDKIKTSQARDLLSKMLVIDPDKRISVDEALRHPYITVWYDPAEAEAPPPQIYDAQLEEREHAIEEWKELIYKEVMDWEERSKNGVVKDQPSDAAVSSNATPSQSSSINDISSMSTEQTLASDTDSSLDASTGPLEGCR
T4 sequence (P45983 whole entry): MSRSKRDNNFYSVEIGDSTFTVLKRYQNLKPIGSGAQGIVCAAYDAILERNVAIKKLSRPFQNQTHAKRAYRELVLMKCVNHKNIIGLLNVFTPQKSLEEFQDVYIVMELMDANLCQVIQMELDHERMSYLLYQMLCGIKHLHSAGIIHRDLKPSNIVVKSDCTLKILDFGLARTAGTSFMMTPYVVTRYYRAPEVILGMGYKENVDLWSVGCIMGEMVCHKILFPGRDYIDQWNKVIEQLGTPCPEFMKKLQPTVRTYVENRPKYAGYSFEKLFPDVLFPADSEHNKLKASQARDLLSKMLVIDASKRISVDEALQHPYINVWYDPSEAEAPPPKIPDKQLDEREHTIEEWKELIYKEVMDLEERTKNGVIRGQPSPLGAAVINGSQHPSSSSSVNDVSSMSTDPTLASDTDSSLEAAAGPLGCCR
T1 sequence (P04049 whole entry): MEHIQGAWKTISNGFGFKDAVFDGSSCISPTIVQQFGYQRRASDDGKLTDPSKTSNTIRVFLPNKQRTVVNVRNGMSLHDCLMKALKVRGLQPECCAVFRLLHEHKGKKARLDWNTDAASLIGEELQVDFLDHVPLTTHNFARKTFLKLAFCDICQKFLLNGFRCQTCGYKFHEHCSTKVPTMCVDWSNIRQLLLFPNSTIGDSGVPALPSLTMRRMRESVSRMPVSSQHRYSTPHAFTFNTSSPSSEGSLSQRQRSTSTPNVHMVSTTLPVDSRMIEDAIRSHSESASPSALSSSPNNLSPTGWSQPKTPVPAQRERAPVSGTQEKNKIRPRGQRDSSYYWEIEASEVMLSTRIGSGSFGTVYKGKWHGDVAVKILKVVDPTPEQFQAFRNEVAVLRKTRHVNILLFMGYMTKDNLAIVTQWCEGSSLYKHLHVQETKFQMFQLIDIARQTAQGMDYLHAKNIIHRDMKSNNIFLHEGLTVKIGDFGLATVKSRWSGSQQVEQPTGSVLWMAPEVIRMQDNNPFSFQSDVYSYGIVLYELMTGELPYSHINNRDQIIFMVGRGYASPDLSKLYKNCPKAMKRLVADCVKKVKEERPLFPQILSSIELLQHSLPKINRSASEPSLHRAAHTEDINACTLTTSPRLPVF
Chain of Mitogen-activated protein kinase 14 (Rattus norvegicus, UniProt P70618) (P70618 whole entry): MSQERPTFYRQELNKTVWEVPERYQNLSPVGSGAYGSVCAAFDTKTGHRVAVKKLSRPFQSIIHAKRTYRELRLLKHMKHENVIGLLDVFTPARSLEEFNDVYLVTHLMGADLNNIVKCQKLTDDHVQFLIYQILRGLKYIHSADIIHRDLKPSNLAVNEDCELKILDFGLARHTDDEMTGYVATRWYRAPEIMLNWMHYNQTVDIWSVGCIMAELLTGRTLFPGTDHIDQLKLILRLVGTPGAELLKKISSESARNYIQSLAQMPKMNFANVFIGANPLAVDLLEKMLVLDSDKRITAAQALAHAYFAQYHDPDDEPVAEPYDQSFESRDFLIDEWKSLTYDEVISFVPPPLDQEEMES
Chain of Mitogen-activated protein kinase 14 (Homo sapiens, UniProt Q16539) (Q16539 whole entry): as the sequence (P70618 whole entry) above, with V17I, H48L, A263T, E321D, F332L counted along it
Chain of Mitogen-activated protein kinase 11 (Q15759 whole entry): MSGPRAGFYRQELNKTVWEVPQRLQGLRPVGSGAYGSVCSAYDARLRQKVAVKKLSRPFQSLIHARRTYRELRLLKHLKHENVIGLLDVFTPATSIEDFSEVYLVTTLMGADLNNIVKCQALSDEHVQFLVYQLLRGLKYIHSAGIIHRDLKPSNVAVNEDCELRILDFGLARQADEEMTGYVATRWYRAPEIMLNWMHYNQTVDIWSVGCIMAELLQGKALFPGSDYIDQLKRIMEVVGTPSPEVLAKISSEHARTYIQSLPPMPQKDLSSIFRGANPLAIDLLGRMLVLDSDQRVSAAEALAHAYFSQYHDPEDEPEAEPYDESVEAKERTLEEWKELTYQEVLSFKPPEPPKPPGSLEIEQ

O=C(O)c1ccc(-c2cc(-c3ccncc3)c(-c3ccccc3)[nH]2)cc1
IC50 [1]: 14 nM

O=C(NCCN1CCCCC1)c1ccc(-c2cc(-c3ccncc3)c(-c3ccccc3)[nH]2)cc1
IC50 [1]: 97 nM

Clc1ccc(-c2[nH]c(-c3ccccc3)cc2-c2ccncc2)cc1Cl
IC50 [1]: 30 nM

CC(C)(C)Oc1ccc(-c2[nH]c(-c3ccccc3)cc2-c2ccncc2)cc1
IC50 [1]: > 1000 nM

Fc1ccc(-c2cc(-c3ccncc3)c(-c3ccc(F)cc3)[nH]2)cc1
IC50 [1]: 60 nM

Fc1ccccc1-c1cc(-c2ccncc2)c(-c2ccccc2)[nH]1
IC50 [1]: 34 nM

Fc1ccc(-c2nc(-c3ccc(Cl)cc3)[nH]c2-c2ccncc2)cc1
IC50 [1]: 80 nM

CSc1ccc(-c2[nH]c(-c3ccccc3)cc2-c2ccncc2)cc1
IC50 [1]: 690 nM

Fc1ccc(-c2cc(-c3ccc(Cl)cc3)oc2-c2ccncc2)cc1
IC50 [1]: 530 nM

CSc1ccc(-c2cc(-c3ccncc3)c(-c3ccc(F)cc3)[nH]2)cc1
IC50 [1]: 44 nM

Nc1ccc(-c2cc(-c3ccncc3)c(-c3ccccc3)[nH]2)cc1
IC50 [1]: 28 nM

c1ccc(-c2cc(-c3ccncc3)c(-c3ccccn3)[nH]2)cc1
IC50 [1]: 2300 nM

COc1ccc(-c2cc(-c3ccncc3)c(-c3ccccc3)[nH]2)cc1
IC50 [1]: 280 nM

Fc1ccc(-c2[nH]c(-c3ccccc3)cc2-c2ccncc2)c(F)c1
IC50 [1]: 29 nM

Oc1ccc(-c2[nH]c(-c3ccccc3)cc2-c2ccncc2)cc1
IC50 [1]: 2400 nM

Clc1ccccc1-c1[nH]c(-c2ccccc2)cc1-c1ccncc1
IC50 [1]: 500 nM

C[S+]([O-])c1ccc(-c2cc(-c3ccncc3)c(-c3ccc(F)cc3)[nH]2)cc1 (stereo not drawn)
Cmax [2]: 5.71 µM
IC50 [1]: 5.1 nM
Tmax [3]: 1.05 h
IC50 [4]: 470 nM
Vd [5]: 2.23 L/kg
half-life [6]: 2.59 h
IC50 [7]: 7610 nM
inhibition [8]: 42%
bioavailability [9]: 25.6%
Clp (Rattus norvegicus [10]): 42.6 mL/min/kg
AUC [11]: 16.7 µM·h
inhibition in vivo at 20 mg/kg (Rattus norvegicus [12]): 90%
AUC [13]: 0.81 µM·h
half-life [14]: 2.04 h
ID50 (Rattus norvegicus [15]): 7.4 mg kg-1 b.i.d.
IC50 [16]: 16000 nM
Cmax [17]: 0.31 µM
Tmax [18]: 1 h
IC50 [19]: 1500 nM
half-life [20]: 0.652 h
IC50 [21]: 5 nM
IC50 [22]: 8.1 nM
Clp (Rattus norvegicus [23]): 22.5 mL/min/kg
half-life [24]: 1.06 h
AUC [25]: 10 µM·h
AUC [26]: 2.1 µM·h
Vd [27]: 1.81 L/kg

c1ccc(-c2cc(-c3ccncc3)c(-c3ccoc3)[nH]2)cc1
IC50 [1]: 660 nM

O=C(CCN1CCCCC1)Nc1ccc(-c2cc(-c3ccncc3)c(-c3ccccc3)[nH]2)cc1
IC50 [1]: 390 nM

CS(=O)(=O)c1ccc(-c2cc(-c3ccncc3)c(-c3ccc(F)cc3)[nH]2)cc1
IC50 [1]: 9.8 nM
IC50 [4]: 500 nM
IC50 [7]: 6850 nM
inhibition [28]: 50%
inhibition [29]: 37%
AUC [11]: 95.7 µM·h
AUC [13]: 5.8 µM·h
ED50 (Rattus norvegicus [15]): 7.4 mg/kg/day
inhibition [30]: 50%
IC50 [19]: 1080 nM
IC50 [21]: 9 nM
IC50 [22]: 10 nM
AUC [25]: 32.6 µM·h
AUC [26]: 6.18 µM·h

Fc1ccc(-c2[nH]c(-c3ccc(Br)cc3)cc2-c2ccncc2)cc1
IC50 [1]: 100 nM

COc1ccc(-c2cc(-c3ccncc3)c(-c3ccc(F)cc3)[nH]2)cc1
IC50 [1]: 60 nM

Fc1ccc(-c2cc(-c3ccc(Cl)cc3)[nH]c2-c2ccncc2)cc1
IC50 [1]: 1400 nM

Clc1cccc(-c2[nH]c(-c3ccccc3)cc2-c2ccncc2)c1
IC50 [1]: 29 nM

O=[N+]([O-])c1cccc(-c2cc(-c3ccncc3)c(-c3ccccc3)[nH]2)c1
IC50 [1]: 53 nM

O=c1c(-c2ccc(F)cc2)c(-c2ccncc2)[nH]n1-c1ccc(Cl)cc1
IC50 [1]: 35 nM

N#Cc1ccc(-c2[nH]c(-c3ccccc3)cc2-c2ccncc2)cc1
IC50 [1]: 450 nM

CCOC(=O)c1ccc(-c2[nH]c(-c3ccccc3)cc2-c2ccncc2)cc1
IC50 [1]: > 10000 nM

CCOC(=O)c1ccc(-c2cc(-c3ccncc3)c(-c3ccccc3)[nH]2)cc1
IC50 [1]: 130 nM

Clc1ccc(-c2cc(-c3ccncc3)c(-c3ccccc3)[nH]2)cc1
IC50 [1]: 510 nM

C[S+]([O-])c1ccc(-c2nc(-c3ccc(F)cc3)c(-c3ccncc3)[nH]2)cc1 (stereo not drawn) [SB-203580]
inhibition in vivo at 80 mg/kg (Rattus norvegicus [31]): 74%
ED50 (Rattus norvegicus [15]): 80 mg/kg/day
inhibition [32]: 50%

Fc1ccc(-c2[nH]c(-c3ccccc3)cc2-c2ccccc2)cc1
inhibition [33]: 79%

COc1ccc(OC)c(-c2cc(-c3ccncc3)c(-c3ccccc3)[nH]2)c1
IC50 [1]: 5000 nM

c1ccc(-c2cc(-c3ccncc3)c(-c3ccncc3)[nH]2)cc1
IC50 [1]: 1220 nM

c1ccc(-c2cc(-c3ccncc3)c(-c3cccs3)[nH]2)cc1
IC50 [1]: 120 nM

Fc1ccc(-c2[nH]c(-c3ccc(Cl)cc3)cc2-c2ccncc2)cc1
IC50 [1]: 200 nM

Fc1cccc(-c2cc(-c3ccncc3)c(-c3ccccc3)[nH]2)c1
IC50 [1]: 42 nM

C[S+]([O-])c1ccc(-c2cc(-c3ccnc4ccccc34)c(-c3ccc(F)cc3)[nH]2)cc1 (stereo not drawn)
IC50 [1]: 114 nM

Fc1ccc(-c2[nH]c(-c3ccc(Cl)cc3)cc2-c2ccccn2)cc1
IC50 [1]: > 10000 nM

Clc1ccc(-c2[nH]c(-c3ccccc3)cc2-c2ccncc2)cc1
IC50 [1]: 18 nM

COc1ccc(OC)c(-c2cc(-c3ccncc3)c(-c3ccc(F)cc3)[nH]2)c1
IC50 [1]: 1700 nM

N#Cc1cccc(-c2[nH]c(-c3ccccc3)cc2-c2ccncc2)c1
IC50 [1]: 53 nM

Fc1ccc(-c2oc(-c3ccc(Cl)cc3)cc2-c2ccncc2)cc1
IC50 [1]: 630 nM

Cc1cnccc1-c1cc(-c2ccc([S+](C)[O-])cc2)[nH]c1-c1ccc(F)cc1 (stereo not drawn)
IC50 [1]: 260 nM

C[S+]([O-])c1ccc(-n2nc(-c3ccncc3)c(-c3ccc(F)cc3)c2O)cc1 (stereo not drawn)
IC50 [1]: 83 nM

Fc1ccc(-c2[nH]c(-c3ccccc3)cc2-c2ccncn2)cc1
IC50 [1]: 710 nM

O=[N+]([O-])c1ccc(-c2cc(-c3ccncc3)c(-c3ccccc3)[nH]2)cc1
IC50 [1]: 6.1 nM

c1ccc(-c2cc(-c3ccncc3)c(-c3ccccc3)[nH]2)cc1
IC50 [1]: 17 nM

Fc1ccc(-c2[nH]c(-c3ccccc3)cc2-c2ccncc2)cc1F
IC50 [1]: 4.4 nM

Fc1ccc(-c2[nH]c(-c3ccccc3)cc2-c2ccncc2)cc1
IC50 [1]: 12 nM

c1ccc(-c2cc(-c3ccncc3)c(-c3cccnc3)[nH]2)cc1
IC50 [1]: 240 nM

COc1ccc2c(c1)c(CC(=O)O)c(C)n2C(=O)c1ccc(Cl)cc1 [INDOMETHACIN]
ID50 (Rattus norvegicus [15]): 1 mg kg-1 b.i.d.

FC(F)(F)c1ccc(-c2[nH]c(-c3ccccc3)cc2-c2ccncc2)cc1
IC50 [1]: 910 nM

Cc1cc(-c2cc(-c3ccc([S+](C)[O-])cc3)[nH]c2-c2ccc(F)cc2)ccn1 (stereo not drawn)
IC50 [1]: 6 nM

Oc1c(-c2ccncc2)c(-c2ccc(F)cc2)nn1-c1ccc(Cl)cc1
IC50 [1]: 500 nM
Inhibition (Rattus norvegicus [34]): 43%

Fc1ccc(-c2cc(-c3ccncc3)c(-c3ccccc3)[nH]2)cc1
IC50 [1]: 17 nM
